Patent publication US20070167447A1, “Indole acetamides as inhibitors of the hepatitis c virus ns5b polymerase” (priority 2003, published 2007)
Structures can show the parent of a compound that is named as a salt.

What was measured:
[1] = target: T1, HCV RNA dependent RNA polymerase (NS5B) (Hepatitis C virus genotype 1b, UniProt P26663); assay: In-vitro HCV NS5B enzyme inhibition assay; assay type: biochemical; conditions: NS5B enzyme 5 nM, 1 h at 22° C.
T1 construct: made in house; host or cells: insect cells infected with recombinant baculovirus (as described for the cited WO 96/37619)
T1 sequence (P26663 2420-3010): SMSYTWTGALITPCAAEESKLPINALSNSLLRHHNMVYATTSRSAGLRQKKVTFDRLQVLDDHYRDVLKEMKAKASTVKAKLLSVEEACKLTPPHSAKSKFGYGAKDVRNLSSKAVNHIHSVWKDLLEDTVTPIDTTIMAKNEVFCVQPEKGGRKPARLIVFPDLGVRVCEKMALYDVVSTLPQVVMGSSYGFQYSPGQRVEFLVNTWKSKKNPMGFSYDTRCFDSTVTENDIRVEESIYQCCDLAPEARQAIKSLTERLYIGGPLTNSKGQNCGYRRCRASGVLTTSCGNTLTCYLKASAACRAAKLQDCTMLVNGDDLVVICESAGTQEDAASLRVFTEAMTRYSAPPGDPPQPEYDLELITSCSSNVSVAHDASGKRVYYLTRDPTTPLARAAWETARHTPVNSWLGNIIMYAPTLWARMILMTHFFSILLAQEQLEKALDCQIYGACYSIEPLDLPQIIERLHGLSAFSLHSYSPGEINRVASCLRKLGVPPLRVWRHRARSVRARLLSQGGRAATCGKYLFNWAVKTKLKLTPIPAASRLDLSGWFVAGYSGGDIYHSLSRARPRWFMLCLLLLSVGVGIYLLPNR
Text: i) In-vitro HCV NS5B Enzyme Inhibition Assay
WO 96/37619 describes the production of recombinant HCV RdRp from insect cells infected with recombinant baculovirus encoding the enzyme. […] The reference describes a polymerisation assay using poly(A) and oligo(U) as a primer or an heteropolymeric template. Incorporation of tritiated UTP or NTPs is quantified by measuring acid-insoluble radioactivity. The present inventors have employed this assay to screen the various compounds described above as inhibitors of HCV RdRp.
(§1) Incorporation of radioactive UMP was measured as follows. The standard reaction (50 μl) was carried out in a buffer containing 20 mM tris/HCl pH 7.5, 5 mM MgCl2, 1 mM DTT, 50 mM NaCl, 0.03% N-octylglucoside, 1 μCi [^3H]-UTP (40 Ci/mmol, NEN), 10 μM UTP and 10 μg/ml poly(A) or 5 μM NTPs and 5 μg/ml heteropolymeric template. Oligo(U)12 (1 μg/ml, Genset) was added as a primer in the assay working on Poly(A) template. The final NS5B enzyme concentration was 5 nM. The order of assembly was: 1) compound, 2) enzyme, 3) template/primer, 4) NTP. After 1 h incubation at 22° C. the reaction was stopped by adding 50 μl of 20% TCA and applying samples to DE81 filters. The filters were washed thoroughly with 5% TCA containing 1M Na2HPO4/NaH2PO4, pH 7.0, rinsed with water and then ethanol, air dried, and the filter-bound radioactivity was measured in the scintillation counter. […]

[2] = test system: subgenomic HCV replicon in Huh-7 cells; assay: Cell based HCV sub-genomic replication assay (NS3 Cell-ELISA); conditions: Hepatitis C virus; Huh-7 replicon cells, 96 hours, NS3 expression
Method: as §1
Cell clones that stably maintain subgenomic HCV replicon were obtained by transfecting Huh-7 cells with an RNA replicon identical to I377neo/NS3-3′/wt described by Lohmann et al. (1999) (EMBL-genbank No. AJ242652), followed by selection with neomycin sulfate (G418). […] Each condition was tested in duplicate and average absorbance values were used for calculations. […] After washing again as above, the reaction was developed with p-Nitrophenyl phosphate disodium substrate (Sigma) and the absorbance at 405/620 nm read at intervals. […]

## CN(CC1CCCCN1C)C(=O)Cn1c(-c2ccccc2)c(C2CCCCC2)c2ccc(C(=O)O)cc21 (centres unmarked) [Example 15, 3-cyclohexyl-1-(2-{methyl[(1-methylpiperidin-2-yl)methyl]amino}-2-oxoethyl)-2-phenyl-1H-indole-6-carboxylic acid trifluoroacetate]
[1]
  IC50: 14 nM
[2]
  EC50: 270 nM
